# Data as given in EP4813381A1, “PHARMACEUTICAL USE OF GUAIANE SESQUITERPENE DERIVATIVE” (Nanjing University Of Chinese Medicine, priority 2023, dated 2025).
# Experiments:
# [1] = Conversion rate of salt-form prodrugs to parent compound in mouse plasma; format: in vitro ADME; details: 37 °C
# Experimental: Pharmaceutically acceptable salts of guaiane-type sesquiterpene lactone derivatives were selected and evaluated for their conversion rates to Compound 1 and Compound 83 in plasma and HEPES buffer, with results shown in Tables 2-1, 2-2, 3-1, and 3-2.
# Plasma Preparation: Collect mouse plasma into an EP tube pre-loaded with sodium heparin, centrifuge at 8000 rpm for 10 minutes at 4°C, and then collect the supernatant.
# Sample Analysis: Dissolve 0.6 mg of the compound in 250 µl of deionized water separately. Add 250 µl of mouse serum or HEPES 7.4 solution to the sample, incubate at a constant temperature of 37 °C, and collect samples at different time points. Pipette 20 µl of the sample to an EP tube, add 60 µl of methanol, vortex to mix thoroughly, and centrifuge at 12,000 rpm at 4 °C for 10 min. At 1 h, 2 h, 4 h, 8 h, and 12 h respectively, collect the supernatant for HPLC analysis. Inject 10 µL of sample and record the corresponding peak areas. Chromatographic conditions: Hanbang C18 column (4.6 × 250 mm, 5 µm); mobile phase: acetonitrile: […] ammonium formate solution = 60:40; flow rate 1.0 mL/min; detection wavelength 210 nm; column temperature 30 °C. [drawing 171] Table 2-1. Conversion Rate of Compounds 20-42 to Compound 1 at Different Time Points in HEPES Buffer Solution
# [2] = Conversion rate of salt-form prodrugs to parent compound in HEPES buffer solution; format: physicochemical
# Experimental: Adjust the pH to 7.4 using 0.5 M NaOH, then dilute to a final volume 100 mL with distilled water.
# Sample Analysis: Dissolve 0.6 mg of the compound in 250 µl of deionized water separately. Add 250 µl of mouse serum or HEPES 7.4 solution to the sample, incubate at a constant temperature of 37 °C, and collect samples at different time points. Pipette 20 µl of the sample to an EP tube, add 60 µl of methanol, vortex to mix thoroughly, and centrifuge at 12,000 rpm at 4 °C for 10 min. At 1 h, 2 h, 4 h, 8 h, and 12 h respectively, collect the supernatant for HPLC analysis. Inject 10 µL of sample and record the corresponding peak areas.
# [3] = conversion to Compound 1, mouse plasma, 1 h
# [4] = conversion to Compound 1, mouse plasma, 2 h
# [5] = conversion to Compound 1, mouse plasma, 4 h
# [6] = conversion to Compound 1, mouse plasma, 8 h
# [7] = conversion to Compound 1, mouse plasma, 12 h
# [8] = conversion to Compound 1, HEPES buffer pH 7.4, 37 °C, 1 h
# [9] = conversion to Compound 1, HEPES buffer pH 7.4, 37 °C, 2 h
# [10] = conversion to Compound 1, HEPES buffer pH 7.4, 37 °C, 4 h
# [11] = conversion to Compound 1, HEPES buffer pH 7.4, 37 °C, 8 h
# [12] = conversion to Compound 1, HEPES buffer pH 7.4, 37 °C, 12 h
# [13] = conversion to Compound 83, mouse plasma, 1 h
# [14] = conversion to Compound 83, mouse plasma, 2 h
# [15] = conversion to Compound 83, mouse plasma, 4 h
# [16] = conversion to Compound 83, mouse plasma, 8 h
# [17] = conversion to Compound 83, mouse plasma, 12 h
# [18] = conversion to Compound 83, HEPES buffer pH 7.4, 37 °C, 1 h
# [19] = conversion to Compound 83, HEPES buffer pH 7.4, 37 °C, 2 h
# [20] = conversion to Compound 83, HEPES buffer pH 7.4, 37 °C, 4 h
# [21] = conversion to Compound 83, HEPES buffer pH 7.4, 37 °C, 8 h
# [22] = conversion to Compound 83, HEPES buffer pH 7.4, 37 °C, 12 h
SMILES,"Release rate [1, 3] [%]","Release rate [1, 4] [%]","Release rate [1, 5] [%]","Release rate [1, 6] [%]","Release rate [1, 7] [%]","Release rate [2, 8] [%]","Release rate [2, 9] [%]","Release rate [2, 10] [%]","Release rate [2, 11] [%]","Release rate [2, 12] [%]","Release rate [1, 13] [%]","Release rate [1, 14] [%]","Release rate [1, 15] [%]","Release rate [1, 16] [%]","Release rate [1, 17] [%]","Release rate [2, 18] [%]","Release rate [2, 19] [%]","Release rate [2, 20] [%]","Release rate [2, 21] [%]","Release rate [2, 22] [%]"
C[C@@]12CC[C@@H]3[C@H](OC(=O)[C@H]3CN3CCC3)[C@@H]3[C@]1(CC[C@@]3(C)O)C2 [compound 33],6.9,14.8,26.0,42.8,50.7,6.9,15.8,26.0,41.8,51.1,,,,,,,,,,
C[C@@]12CC[C@@H]3[C@H](OC(=O)[C@H]3CN3CC4CCCC4C3)[C@@H]3[C@]1(CC[C@@]3(C)O)C2 (stereo partly shown) [compound 32],6.3,14.4,25.2,43.2,51.4,6.9,15.4,26.2,42.2,51.2,,,,,,,,,,
CCN1CCN(C[C@@H]2C(=O)O[C@H]3[C@H]2CC[C@@]2(C)C[C@]24CC[C@@](C)(O)[C@H]34)CC1 [compound 27],7.9,17.4,28.4,48.2,59.1,,,,,,,,,,,,,,,
CCCN(CCC)C[C@@H]1C(=O)O[C@H]2[C@H]1CC[C@@]1(C)C[C@]13CC[C@@](C)(O)[C@H]23 [compound 29],6.8,14.2,24.6,40.2,49.0,6.8,14.2,24.6,40.2,49.8,,,,,,,,,,
C[C@@]12CC[C@@H]3[C@H](OC(=O)[C@H]3CN3CCOCC3)[C@@H]3[C@]1(CC[C@@]3(C)O)C2 [compound 25],6.8,14.1,25.7,43.8,51.8,6.8,14.1,26.1,42.8,51.8,,,,,,,,,,
C[C@@]12CC[C@@H]3[C@H](OC(=O)[C@H]3CN3CCC(N4CCOCC4)CC3)[C@@H]3[C@]1(CC[C@@]3(C)O)C2 [compound 36],6.6,14.8,26.0,43.6,52.1,6.9,14.8,26.0,43.6,52.4,,,,,,,,,,
CCOC(=O)[C@@H]1CCCN1C[C@@H]1C(=O)O[C@H]2[C@H]1CC[C@@]1(C)C[C@]13CC[C@@](C)(O)[C@H]23 [compound 23],7.2,14.3,26.8,45.1,52.8,6.2,14.3,26.8,41.1,52.8,,,,,,,,,,
C[C@@]12CC[C@@H]3[C@H](OC(=O)[C@H]3CN3CCCCCCC3)[C@@H]3[C@]1(CC[C@@]3(C)O)C2 [compound 38],6.1,14.5,25.4,41.4,49.7,6.9,14.8,25.4,41.4,50.7,,,,,,,,,,
C[C@@]12CC[C@@H]3[C@H](OC(=O)[C@H]3CN3CCC4(CC3)CC4)[C@@H]3[C@]1(CC[C@@]3(C)O)C2 [compound 37],8.2,17.8,29.3,48.1,67.8,7.2,16.8,28.3,44.1,65.8,,,,,,,,,,
CC1=C2CC[C@@](C)(OC(=O)N3CCCCC3)[C@@H]2[C@H]2OC(=O)[C@@H](CN3CCCC3)[C@@H]2CC1 [compound 100],,,,,,,,,,,6.6,13.8,25.6,43.2,53.0,6.5,14.0,26.4,45.2,51.4
CCCCN(CCCC)C[C@@H]1C(=O)O[C@H]2[C@H]1CC[C@@]1(C)C[C@]13CC[C@@](C)(O)[C@H]23 [compound 30],6.6,13.6,23.8,40.8,48.8,6.6,14.6,23.8,40.8,49.8,,,,,,,,,,
C[C@@]12CC[C@@H]3[C@H](OC(=O)[C@H]3CN3CCCCC3)[C@@H]3[C@]1(CC[C@@]3(C)O)C2 [compound 24],7.7,17.1,27.7,47.8,57.9,6.8,15.1,26.7,42.8,54.0,,,,,,,,,,
CC1=C2CC[C@@](C)(OC(=O)N3CCCCC3)[C@@H]2[C@H]2OC(=O)[C@@H](CN3CCCC3)[C@@H]2CC1 [compound 101],,,,,,,,,,,7.6,16.6,27.4,46.0,54.2,7.0,16.0,28.2,46.4,53.6
CN(C)C[C@@H]1C(=O)O[C@H]2[C@H]1CC[C@@]1(C)C[C@]13CC[C@@](C)(O)[C@H]23 [compound 40],6.7,14.2,,44.0,52.6,6.8,14.6,,44.0,50.2,,,,,,,,,,
C[C@@]12CC[C@@H]3[C@H](OC(=O)[C@H]3CN3CCCC3)[C@@H]3[C@]1(CC[C@@]3(C)O)C2 [compound 22],,,,,,6.4,14.8,26.6,41.3,53.7,,,,,,,,,,
C[C@@]12CC[C@@H]3[C@H](OC(=O)[C@H]3CN3CCC4(CCCC4)CC3)[C@@H]3[C@]1(CC[C@@]3(C)O)C2 [compound 34],7.8,17.2,28.6,47.6,58.8,7.0,16.2,27.6,43.6,54.4,,,,,,,,,,
CC(C)N(C[C@@H]1C(=O)O[C@H]2[C@H]1CC[C@@]1(C)C[C@]13CC[C@@](C)(O)[C@H]23)C(C)C [compound 31],6.5,13.9,24.4,40.2,48.5,6.7,14.0,23.0,41.2,49.5,,,,,,,,,,
C[C@@]12CC[C@@H]3[C@H](OC(=O)[C@H]3CN3CCNCC3)[C@@H]3[C@]1(CC[C@@]3(C)O)C2 [compound 26],,,,,,6.8,16.1,27.3,43.5,55.6,,,,,,,,,,
